The test system of assay [1] is Mus musculus. Kind of assay: Antiamnesic activity in Swiss albino mouse CPA-induced amnesia model assessed as time taken to enter dark compartment during retention session at 3 mg/kg, ip administered 30 mins prior to session by passive avoidance test (reference value: 61.2 +/- 9.0 secs). It counts as functional. The following applies: route intraperitoneal.
In assay [2] the test system is Mus musculus. As to the kind of experiment: Antiamnesic activity in Swiss albino mouse CPA-induced amnesia model assessed as time taken to enter dark compartment during training session at 3 mg/kg, ip administered 30 mins prior to session by passive avoidance test (reference value: 16.6 +/- 4.1 secs). It counts as functional. As to conditions: route intraperitoneal.

The structures appear in SMILES notation.

Take `CCCn1c(=O)c2[nH]c(C3CCCC3)nc2n(CCC)c1=O` [1,3-DIPROPYL-8-CYCLOPENTYLXANTHINE [DPCPX]]: the Time came to 1.53 min in assay [1] and 0.275 min in assay [2].

(Values after ChEMBL document CHEMBL3351777, “Further studies on pyrazolo[1',5':1,6]pyrimido[4,5-d]pyridazin-4(3H)-ones as potent and selective human A1 adenosine receptor antagonists” (Eur J Med Chem, 2015).)
